Read-outs that look alike come from different tables or passages of the source.
Target: T1, RORc ligand binding domain (Homo sapiens, UniProt P51449)
T1 construct: host or cells: E. coli
T1 sequence (P51449 269-508 limits assumed): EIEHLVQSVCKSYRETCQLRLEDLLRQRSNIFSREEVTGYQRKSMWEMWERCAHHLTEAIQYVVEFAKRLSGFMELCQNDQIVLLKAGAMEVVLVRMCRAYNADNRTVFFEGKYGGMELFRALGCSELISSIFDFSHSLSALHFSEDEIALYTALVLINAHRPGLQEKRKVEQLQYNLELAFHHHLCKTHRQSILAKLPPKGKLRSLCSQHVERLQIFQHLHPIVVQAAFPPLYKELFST
Assay: In Vitro RORc Ligand Binding Assay (25-[3H]hydroxycholesterol radioligand filtration)

[1] = In Vitro RORc Ligand Binding Assay, Table 4, read-out: RORc IC50

IC50 [1] [nM]	SMILES	other results
3520	C[C@H]1CCC(c2ccccc2)S(=O)(=O)N1Cc1ccc(C(=O)N[C@@H]2CCN(S(C)(=O)=O)C2)cc1 (stereo partly drawn) [Example 388, N-((R)-1-Methanesulfonyl-pyrrolidin-3-yl)-4-((3S)-methyl-1,1-dioxo-6-phenyl-[1,2]thiazinan-2-ylmethyl)-benzamide]	
8310	C[C@H]1CCC(c2ccccc2)S(=O)(=O)N1Cc1ccc(C(=O)N2CCOC(C(=O)N(C)C)C2)cc1 (stereo partly drawn) [Example 293, 4-[4-((3S)-Methyl-1,1-dioxo-6-phenyl-[1,2]thiazinan-2-ylmethyl)-benzoyl]-morpholine-2-carboxylic acid dimethylamide]	
27	C[C@H]1CCC(c2ccccc2)S(=O)(=O)N1Cc1ccc(N2CCC(n3cnnc3)CC2)cc1F (single isomer, unassigned) [Example 151]	
12	C[C@H]1CCC(c2ccccc2)S(=O)(=O)N1Cc1ccc(N2CCC(c3cnn[nH]3)CC2)cc1F (single isomer, unassigned) [Example 255]	
	C[C@H]1CCC(c2ccccc2)S(=O)(=O)N1Cc1ccc(OC2CCNC2=O)cc1 (stereo partly drawn) [Example 446, 3-[4-((3S)-Methyl-1,1-dioxo-6-phenyl-[1,2]thiazinan-2-ylmethyl)-phenoxy]-pyrrolidin-2-one]	IC50 (read-out: RORc IC50): 1500 nM
93	C[C@@H]1CC(c2ccccc2)S(=O)(=O)N(Cc2ccc(N3CCN(C(=O)CC#N)CC3)cc2F)C1 (stereo partly drawn) [Example 230, 3-{4-[3-Fluoro-4-((4R)-methyl-1,1-dioxo-6-phenyl-[1,2]thiazinan-2-ylmethyl)-phenyl]-piperazin-1-yl}-3-oxo-propionitrile]	
12	CC(=O)N1CCN(c2ccc(CN3CC(C)CCC(c4ccccc4)S3(=O)=O)c(F)c2)CC1 (single isomer, unassigned) [Example 338, 1-{4-[3-Fluoro-4-(4-methyl-1,1-dioxo-7-phenyl-[1,2]thiazepan-2-ylmethyl)-phenyl]-piperazin-1-yl}-ethanone]	
49	C[C@H]1CCC(c2ccccc2)S(=O)(=O)N1Cc1ccc(N[C@H]2CC[C@H](C#N)CC2)cc1F (single isomer, unassigned) [Example 111]	
168	C[C@@H]1CCC(c2ccccc2)S(=O)(=O)N1Cc1ccc(OC2CCN(S(C)(=O)=O)CC2)nc1 (single isomer, unassigned) [Example 50]	
142	CON(C)C(=O)C1CCN(c2ccc(CN3[C@@H](C)CCC(c4ccccc4)S3(=O)=O)c(F)c2)CC1 (single isomer, unassigned) [Example 146]	
	O=S1(=O)[C@H](c2ccccc2)CCC2(CC2)N1Cc1ccc(N2CCC(n3cnnc3)CC2)cc1F [Example 421, (S)-4-[2-Fluoro-4-(4-[1,2,4]triazol-4-yl-piperidin-1-yl)-benzyl]-6-phenyl-5-thia-4-aza-spiro[2.5]octane 5,5-dioxide]	IC50 (RORc IC50): 289 nM
117	COc1cccc(C2CC[C@H](C)N(Cc3ccc(N4CCN(C(C)=O)CC4)cc3F)S2(=O)=O)c1 (single isomer, unassigned) [Example 190]	
78	CC(=O)N1CCN(c2ccc(CN3[C@@H](C)CCC(c4ccccc4)S3(=O)=O)c(F)c2)C[C@@H]1C#N (stereo partly drawn) [Example 376, (R)-1-Acetyl-4-[3-fluoro-4-((3S)-methyl-1,1-dioxo-6-phenyl-[1,2]thiazinan-2-ylmethyl)-phenyl]-piperazine-2-carbonitrile]	
	C[C@H]1CCC(c2ccccc2)S(=O)(=O)N1Cc1ccc(N2CCN3C(=O)COCC3C2)cc1F (stereo partly drawn) [Example 417, 8-[3-Fluoro-4-((3S)-methyl-1,1-dioxo-6-phenyl-[1,2]thiazinan-2-ylmethyl)-phenyl]-hexahydro-pyrazino[2,1-c][1,4]oxazin-4-one]	IC50 (read-out: RORc IC50): 231 nM
903	C[C@H]1CCC(c2ccccc2)S(=O)(=O)N1Cc1ccc(C(=O)N2CCC3(CC2)COC3)cc1 (stereo partly drawn) [Example 362, [4-((3S)-Methyl-1,1-dioxo-6-phenyl-[1,2]thiazinan-2-ylmethyl)-phenyl]-(2-oxa-7-aza-spiro[3.5]non-7-yl)-methanone]	
44	C[C@H]1CCC(c2ccccc2)S(=O)(=O)N1Cc1ccc(N2CCC3(CC2)COC3)cc1F (single isomer, unassigned) [Example 99]	

From patent publication US9115101B2 (Genentech, Inc., priority 2012, dated 2015)
